Data from ChEMBL document CHEMBL1777762, “Design and synthesis of protein kinase Cα activators based on 'out of pocket' interactions” (Bioorg Med Chem Lett, 2011).
pKi: −log10 of the molar value. Active and inactive are the calls of the source. The calls are words filed in the database; no cut-off is given here.

Experiments:
[1] = target: T1, Protein kinase C alpha type (Homo sapiens, UniProt P17252); experiment: Activation of human recombinant PKCalpha assessed as rate of phosphate incorporation into PepTag C1 peptide at 1 to 100 uM after 40 mins by agarose gel electrophoresis analysis
[2] = target: T1, Protein kinase C alpha type; experiment: Displacement of [3H]PDBu from human recombinant PKCalpha after 20 mins by liquid scintillation counting
[3] = target: T1, Protein kinase C alpha type; experiment: Activation of human recombinant PKCalpha assessed as rate of phosphate incorporation into PepTag C1 peptide at 0.0001 uM after 40 mins by agarose gel electrophoresis analysis relative to control
[4] = target: T1, Protein kinase C alpha type; experiment: Activation of human recombinant PKCalpha assessed as rate of phosphate incorporation into PepTag C1 peptide at 0.1 uM after 40 mins by agarose gel electrophoresis analysis relative to control
[5] = target: T1, Protein kinase C alpha type; experiment: Activation of human recombinant PKCalpha assessed as rate of phosphate incorporation into PepTag C1 peptide at 10 uM after 40 mins by agarose gel electrophoresis analysis relative to control
[6] = target: T1, Protein kinase C alpha type; experiment: Activation of human recombinant PKCalpha assessed as rate of phosphate incorporation into PepTag C1 peptide at 1 uM after 40 mins by agarose gel electrophoresis analysis relative to control
[7] = target: T1, Protein kinase C alpha type; experiment: Activation of human recombinant PKCalpha assessed as rate of phosphate incorporation into PepTag C1 peptide at 100 uM after 40 mins by agarose gel electrophoresis analysis relative to control
[8] = target: T1, Protein kinase C alpha type; experiment: Activation of human recombinant PKCalpha assessed as rate of phosphate incorporation into PepTag C1 peptide at 0.01 uM after 40 mins by agarose gel electrophoresis analysis relative to control
[9] = target: T1, Protein kinase C alpha type; experiment: Activation of human recombinant PKCalpha assessed as rate of phosphate incorporation into PepTag C1 peptide at 0.001 uM after 40 mins by agarose gel electrophoresis analysis relative to control

SMILES | Activity [1] | pKi [2] | also measured
CCCCCCCCCCCCO[C@H]1[C@@H](OC(C)=O)[C@H](OC(C)=O)[C@@H](OCC#Cc2cccc3c2C(=O)O[C@]3(CO)COC(=O)C(C(C)(C)C)C(C)(C)C)[C@H](OC(C)=O)[C@H]1OC(C)=O | Active | 5.63 | 
CCCCCCCCCCCCO[C@H]1[C@@H](OCc2ccccc2)[C@H](OCc2ccccc2)[C@@H](OCC#Cc2cccc3c2C(=O)O[C@]3(CO)COC(=O)C(C(C)(C)C)C(C)(C)C)[C@H](OCc2ccccc2)[C@H]1OCc1ccccc1 | Active | < 4.70 | 
CCCCCCCCCCCCO[C@@H]1[C@H](OCC=C(C)C)[C@@H](OC/C=C/C(C)C)[C@H](OCC#Cc2cccc3c2C(=O)O[C@]3(CO)COC(=O)C(C(C)(C)C)C(C)(C)C)[C@@H](OCC=C(C)C)[C@@H]1OCC=C(C)C | Active | < 4.70 | 
CCCCCCCCCCCCOc1cccc2c1C(=O)O[C@]2(CO)COC(=O)CCCCCCCCCCC |  | < 5.52 | 
CCCCCCCCCCCCO[C@@H]1[C@H](OC)[C@@H](OC)[C@H](OCC#Cc2cccc3c2C(=O)O[C@]3(CO)COC(=O)C(C(C)(C)C)C(C)(C)C)[C@@H](OC)[C@@H]1OC | Active | 6.22 | 
CCCCCCCCCCCCO[C@H]1[C@@H](OCc2ccc(C(C)C)cc2)[C@H](OCc2ccc(C(C)C)cc2)[C@@H](OCC#Cc2cccc3c2C(=O)O[C@]3(CO)COC(=O)C(C(C)(C)C)C(C)(C)C)[C@H](OCc2ccc(C(C)C)cc2)[C@H]1OCc1ccc(C(C)C)cc1 | Active | < 4.70 | 
CCCCCCCCCCCCOc1cccc2c1C(=O)O[C@]2(CO)COC(=O)C(C(C)(C)C)C(C)(C)C |  | 7.37 | 
CCCCCCCCCCCCCC(=O)O[C@@H]1[C@@H](C)[C@@]2(O)[C@@H](C=C(CO)C[C@]3(O)C(=O)C(C)=C[C@@H]23)[C@@H]2C(C)(C)[C@]12OC(C)=O |  |  | Activity [3]: 0.58%; Activity [4]: 80.6%; Activity [5]: 100%; Activity [6]: 85.3%; Activity [7]: 108%; Activity [8]: 62.4%; Activity [9]: 11.1%
CCCCCCCCCCCCO[C@H]1[C@@H](OCc2ccc(F)cc2)[C@H](OCc2ccc(F)cc2)[C@@H](OCC#Cc2cccc3c2C(=O)O[C@]3(CO)COC(=O)C(C(C)(C)C)C(C)(C)C)[C@H](OCc2ccc(F)cc2)[C@H]1OCc1ccc(F)cc1 | Active | < 4.70 | 
